Common to all, as to assay: NCI tumour cell line growth inhibition, 48 h
The test system of experiment [1] is NCI-H522.
Experiment [2] has as its system MDA-MB-435.
Experiment [3] concerns RXF 393.
The test system of experiment [4] is Hs-578T.
The test system of experiment [5] is A549.
Experiment [6] has as its system U-251.
The subject of experiment [7] is HOP-92.
In experiment [8] the test system is KM12.
Experiment [9] has as its system LOX IMVI.
The test system of experiment [10] is M14.
Experiment [11] has as its system MDA-MB-231.
For experiment [12], the system named is SNB-19.
Experiment [13] deals with SK-MEL-28.
The test system of experiment [14] is K562.
Experiment [15] has as its system SR.
For experiment [16], the system named is HCT-15.
Experiment [17] has as its system PC-3.
Experiment [18] has as its system HT-29.
For experiment [19], the system named is NCI/ADR-RES.
Experiment [20] concerns SF-539.

The results in this text go back to ChEMBL document CHEMBL1201862, “PubChem BioAssay data set” (2004).

The structures appear in SMILES notation.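 Protocol summary: plate cells (96-well), add compound at 5 concentrations, incubate 48 h, interpolate endpoints linearly. Here, GI50 denotes the concentration required for 50% inhibition of growth.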 Activity calls are given as the source filed them. Rule as the data show it: active = GI50 up to about 1.1 µM and inactive = higher.

Regarding `CCOC(=O)C1C(=O)CC(C)(O)C(C(=O)OCC)C1c1ccc(OC)cc1` (stereo not given), the GI50 in experiment [1], in experiment [2], in [3], in experiment [4], in experiment [5] and in experiment [6] was > 100 µM (inactive) in each case. Further, the GI50 in [7], in [8], in experiment [9], in experiment [10], in experiment [11] and in experiment [12] was > 100 µM (inactive) throughout. Moreover, the GI50 in experiment [13] was > 100 µM (inactive); in experiment [14] it was > 100 µM (inactive); in [15] it was > 100 µM (inactive); in experiment [16], over 100 µM; in experiment [17], > 100 µM (inactive); in experiment [18], > 100 µM (inactive). For the same compound, the GI50 in experiment [19] and in experiment [20] was > 100 µM (inactive) in each case.

Take `CC1=C(C#N)C(=O)N(/N=C/c2ccc(Cl)cc2)C(=O)/C1=c1\o/c(=C2/C(=O)N(/N=C/c3ccc(Cl)cc3)C(=O)C(C#N)=C2C)c2nccnc12`: the GI50 in experiment [1] was > 100 µM (inactive); in experiment [2] it was > 100 µM (inactive); in experiment [3], 19.5 µM (inactive); in experiment [4], 21.2 µM (inactive); in experiment [5] it was > 100 µM (inactive); in experiment [6], > 100 µM (inactive). Besides, the GI50 in experiment [7] was > 100 µM (inactive); in experiment [8] it was 47.1 µM (inactive); in experiment [9], > 100 µM (inactive); in [10] it was > 100 µM (inactive); in experiment [11], > 100 µM (inactive); in experiment [12], > 100 µM (inactive). Moreover, the GI50 in [13] was > 100 µM (inactive); in [14], 69.7 µM (inactive); in experiment [15], 80.5 µM (inactive); in experiment [16], 82 µM; in experiment [17], 60.7 µM (inactive); in experiment [18], > 100 µM (inactive). Further, the GI50 in experiment [19] and in experiment [20] was > 100 µM (inactive) throughout.

On to `COc1ccccc1Cn1c2c(c3c(C(=O)NCCN(C)C)c(O)ccc31)C(=O)c1ccccc1C2=O`, for which the GI50 in experiment [1] was 1.69 µM (inactive); in experiment [2] it was 1.69 µM (inactive); in experiment [3] it was 1.07 µM (active); in [4], 1.9 µM (inactive); in experiment [5], 1.82 µM (inactive); in [6] it was 1.91 µM (inactive). Moreover, the GI50 in experiment [7] was 1.17 µM (inactive); in [8] it was 1.59 µM (inactive); in [9], 1.89 µM (inactive); in [10], 1.32 µM (inactive); in [11], 1.99 µM (inactive); in experiment [12], 2.03 µM (inactive). For the same compound, the GI50 in [13] is 1.71 µM (inactive); in experiment [14] it was 0.977 µM (active); in experiment [15], 0.291 µM (active); in experiment [16] it was 1.94 µM; in experiment [17], 2.09 µM (inactive); in experiment [18] it was 1.92 µM (inactive). The GI50 is 2.02 µM (inactive) in experiment [19] and 1.9 µM (inactive) in experiment [20].

In the case of `C=CCC1(c2ccc(OC)cc2)C=CC(=O)CC1` (stereo not given), the GI50 is 77.1 µM (inactive) in experiment [1]; 66.4 µM (inactive) in [2]; 94 µM (inactive) in [3]; 28.5 µM (inactive) in [4]; > 100 µM (inactive) in experiment [5]; 52.4 µM (inactive) in experiment [6]. The GI50 is 44.9 µM (inactive) in [7]; > 100 µM (inactive) in [8]; > 100 µM (inactive) in experiment [9]; > 100 µM (inactive) in [10]; 92.7 µM (inactive) in [11]; > 100 µM (inactive) in [12]. Moreover, the GI50 in [13] was > 100 µM (inactive); in experiment [14] it was 40.2 µM (inactive); in [15] it was 44.3 µM (inactive); in [16] it was 72.3 µM; in [17] it was 77.3 µM (inactive); in [18], > 100 µM (inactive). For the same compound, the GI50 in experiment [19] is 33.2 µM (inactive); in [20] it was > 100 µM (inactive).

In the case of `Cn1ccc(C(=O)NCCN(CCNC(=O)c2ccn(C)c(=O)c2O)CCNC(=O)c2cccc(=O)n2O)c(O)c1=O`, the GI50 in [1], in experiment [2], in [3], in experiment [4], in experiment [5] and in experiment [6] was > 100 µM (inactive) in each case. In addition, the GI50 in experiment [7] was > 100 µM (inactive); in [8], 56.4 µM (inactive); in experiment [9], > 100 µM (inactive); in experiment [10], > 100 µM (inactive); in [11] it was > 100 µM (inactive); in experiment [12], > 100 µM (inactive). Moreover, the GI50 in experiment [13] was > 100 µM (inactive); in experiment [14], > 100 µM (inactive); in [15], > 100 µM (inactive); in [16], over 100 µM; in [17] it was > 100 µM (inactive); in experiment [18], > 100 µM (inactive). Moreover, the GI50 in experiment [19] and in experiment [20] was > 100 µM (inactive) each time.

`O=C(NCC(=O)N1CCCC1C(=O)OC(=O)C1CCCN1C(=O)CNC(=O)OCc1ccccc1)OCc1ccccc1` (stereo not given): the GI50 in experiment [1] was 52.7 µM (inactive); in experiment [2] it was 22.5 µM (inactive); in experiment [3], 24 µM (inactive); in experiment [4] it was > 100 µM (inactive); in experiment [5], 44.8 µM (inactive); in experiment [6] it was 41.8 µM (inactive). Further, the GI50 is 31 µM (inactive) in [7]; 18.2 µM (inactive) in [8]; 17.7 µM (inactive) in experiment [9]; 17.7 µM (inactive) in experiment [10]; 21.1 µM (inactive) in experiment [11]; 39.4 µM (inactive) in experiment [12]. Further, the GI50 is 28.4 µM (inactive) in experiment [13]; 31 µM (inactive) in experiment [14]; 44.5 µM (inactive) in [15]; 38.8 µM in [16]; 35.8 µM (inactive) in [17]; 24.1 µM (inactive) in experiment [18]. Moreover, the GI50 in experiment [19] was > 100 µM (inactive); in [20], 24.5 µM (inactive).

In the case of `CCCCC(=O)c1c(O)ccc2c(C)cc(=O)oc12`, the GI50 in experiment [1] was 58.2 µM (inactive); in [2], > 100 µM (inactive); in experiment [3] it was 49.1 µM (inactive); in experiment [4], 29 µM (inactive); in [5], 73.3 µM (inactive); in experiment [6], > 100 µM (inactive). The GI50 was 36.3 µM (inactive) in experiment [7]; > 100 µM (inactive) in experiment [8]; 93.8 µM (inactive) in [9]; > 100 µM (inactive) in [10]; 67.8 µM (inactive) in experiment [11]; > 100 µM (inactive) in experiment [12]. Besides, the GI50 in experiment [13] was > 100 µM (inactive); in experiment [14], > 100 µM (inactive); in experiment [15] it was 40.7 µM (inactive); in [16] it was 50.4 µM; in experiment [17], > 100 µM (inactive); in experiment [18] it was > 100 µM (inactive). The figures for the GI50 in experiment [19] and in experiment [20] were 55.7 µM (inactive) and > 100 µM (inactive), respectively.

Turning to `CC1=NN2C(=O)CC(=O)N=C2S1`, the GI50 in [1], in [2], in experiment [3], in experiment [4], in experiment [5] and in experiment [6] was > 100 µM (inactive) throughout. For the same compound, the GI50 in experiment [7], in [8], in experiment [9], in [10], in experiment [11] and in experiment [12] was > 100 µM (inactive) throughout. Moreover, the GI50 is > 100 µM (inactive) in experiment [13]; > 100 µM (inactive) in [14]; > 100 µM (inactive) in [15]; over 100 µM in [16]; > 100 µM (inactive) in [17]; > 100 µM (inactive) in experiment [18]. Also, the GI50 in [19] and in experiment [20] was > 100 µM (inactive) each time.

`Cc1cnc2nc(-c3sccc3C)cc(O)c2c1`: the GI50 was 1.12 µM (active) in experiment [1]; 0.342 µM (active) in experiment [2]; 3.42 µM (inactive) in experiment [3]; 2.3 µM (inactive) in experiment [4]; 3.96 µM (inactive) in [5]; 4.86 µM (inactive) in experiment [6]. The GI50 in [7] is 97.3 µM (inactive); in [8] it was 3.1 µM (inactive); in experiment [9], 7.83 µM (inactive); in [10], 2.25 µM (inactive); in experiment [11], 18.1 µM (inactive); in experiment [12], 2.85 µM (inactive). Besides, the GI50 is 23 µM (inactive) in [13]; 5.04 µM (inactive) in experiment [14]; 0.471 µM (active) in experiment [15]; 1.57 µM in experiment [16]; 3.78 µM (inactive) in experiment [17]; 2.4 µM (inactive) in experiment [18]. For the same compound, the GI50 in experiment [19] was 2.31 µM (inactive); in [20], 5.81 µM (inactive).

`CNc1cccc(-c2cc(O)c3cc4c(cc3n2)OCO4)c1`: the GI50 was 0.127 µM (active) in experiment [1]; 0.0378 µM (active) in experiment [2]; 0.213 µM (active) in experiment [3]; 0.269 µM (active) in experiment [4]; 0.664 µM (active) in experiment [5]; 0.267 µM (active) in [6]. Further, the GI50 in experiment [7] was 0.533 µM (active); in experiment [8] it was 0.177 µM (active); in experiment [9], 0.372 µM (active); in experiment [10], 0.224 µM (active); in [11], 0.407 µM (active); in [12], 0.432 µM (active). Further, the GI50 in experiment [13] is 0.859 µM (active); in experiment [14], 0.201 µM (active); in experiment [15], 0.0407 µM (active); in [16] it was 0.272 µM; in experiment [17], 0.254 µM (active); in experiment [18], 0.3 µM (active). In addition, the results for the GI50 in [19] and in [20] were 0.199 µM (active) and 0.198 µM (active), respectively.
